Experimental data taken from US11524968B2, “Heterocyclic compound as a protein kinase inhibitor” (HK inno.N Corporation, priority 2017, dated 2022).

Molecular target: JAK1 (Homo sapiens (Human), UniProt P23458)
Assay: Analysis of JAK1 activity inhibition ability (ADP-Glo Kinase Assay)
Type: biochemical
Conditions: JAK1 enzyme, ADP-Glo luminescence, ATP 250 uM, IRS-itide substrate, 30° C. 40 minutes; read-out: IC50
Summary of the method: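 ADP-Glo luminescence read-out of ADP production, with IC50 taken as the concentration halving JAK1 activity relative to control. Enzyme was incubated 40 min at 30 °C with compound, IRS-itide (40 ng/mL) and ATP (250 uM), concentrations as prepared in pH 7.5 Tris-HCl/MgCl2/BSA/DTT buffer.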

Chain of JAK1 (P23458 whole entry): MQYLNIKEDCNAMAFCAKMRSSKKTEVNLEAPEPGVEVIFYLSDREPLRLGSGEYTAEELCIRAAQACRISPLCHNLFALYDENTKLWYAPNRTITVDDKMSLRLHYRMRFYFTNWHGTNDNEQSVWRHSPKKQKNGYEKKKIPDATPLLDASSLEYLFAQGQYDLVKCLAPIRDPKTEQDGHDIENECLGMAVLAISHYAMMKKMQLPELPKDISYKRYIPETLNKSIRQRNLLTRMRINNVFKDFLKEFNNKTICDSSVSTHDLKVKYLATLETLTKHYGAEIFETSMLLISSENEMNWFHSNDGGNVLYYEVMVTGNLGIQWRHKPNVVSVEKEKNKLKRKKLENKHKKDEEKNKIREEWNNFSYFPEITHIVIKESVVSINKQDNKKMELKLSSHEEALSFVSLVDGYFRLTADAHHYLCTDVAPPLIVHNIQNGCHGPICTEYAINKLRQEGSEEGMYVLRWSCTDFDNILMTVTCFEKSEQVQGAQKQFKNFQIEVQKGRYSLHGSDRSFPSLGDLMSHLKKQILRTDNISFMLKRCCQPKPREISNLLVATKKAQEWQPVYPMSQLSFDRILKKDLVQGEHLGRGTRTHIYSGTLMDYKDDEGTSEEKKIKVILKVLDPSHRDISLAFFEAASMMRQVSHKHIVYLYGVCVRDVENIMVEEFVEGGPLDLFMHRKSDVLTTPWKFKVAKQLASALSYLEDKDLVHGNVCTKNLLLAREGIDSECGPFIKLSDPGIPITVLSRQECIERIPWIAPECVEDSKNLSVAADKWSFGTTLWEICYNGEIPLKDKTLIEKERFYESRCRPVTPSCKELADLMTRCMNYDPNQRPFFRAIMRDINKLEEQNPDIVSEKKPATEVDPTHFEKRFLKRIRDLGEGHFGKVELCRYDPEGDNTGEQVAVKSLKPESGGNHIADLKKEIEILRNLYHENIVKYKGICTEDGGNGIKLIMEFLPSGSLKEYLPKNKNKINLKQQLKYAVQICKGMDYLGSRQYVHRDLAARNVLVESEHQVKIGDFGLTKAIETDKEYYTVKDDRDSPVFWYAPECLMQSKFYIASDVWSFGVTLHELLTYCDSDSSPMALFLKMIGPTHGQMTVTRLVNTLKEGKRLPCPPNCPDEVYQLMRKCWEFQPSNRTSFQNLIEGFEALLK

IC50	SMILES
> 200 nM	Cc1c(NC(=O)C2CC2)nc2[nH]ccc2c1C1=CCN(C(=O)OC(C)(C)C)CC1 [Example 457, tert-butyl 4-(6-(cyclopropanecarboxamido)-5-methyl-1H-pyrrolo[2,3-b]pyridin-4-yl)-3,6-dihydropyridine-1 (2H)-carboxylate]
> 200 nM	CCC1CN(C(=O)OC(C)(C)C)CC=C1c1cc(NC(=O)C2CC2)nc2[nH]ccc12 (centres unmarked) [Example 458, tert-butyl 4-(6-(cyclopropanecarboxamido)-1H-pyrrolo[2,3-b]pyridin-4-yl)-3-ethyl-3,6-dihydropyridine-1 (2H)-carboxylate]
> 200 nM	CC(C)(C)OC(=O)N1C=C(c2cc(NC(=O)C3CC3)nc3[nH]ccc23)CCC1 [Example 459, tert-butyl 5-(6-(cyclopropanecarboxamido)-1H-pyrrolo[2,3-b]pyridin-4-yl)-3,4-dihydropyridine-1 (2H)-carboxylate]
> 200 nM	CC(C)(C)OC(=O)N1CCC=C(c2cc(NC(=O)C3CC3)nc3[nH]ccc23)C1 [Example 460, tert-butyl 5-(6-(cyclopropanecarboxamido)-1H-pyrrolo[2,3-b]pyridin-4-yl)-3,6-dihydropyridine-1 (2H)-carboxylate]
> 200 nM	CC(C)(C)OC(=O)N1CC=C(c2cc(NC(=O)C3CC3)nc3[nH]ccc23)C1 [Example 461, tert-butyl 3-(6-(cyclopropanecarboxamido)-1H-pyrrolo[2,3-b]pyridin-4-yl)-2,5-dihydro-1H-pyrrole-1-carboxylate]
20 to 200 nM	CCNC(=S)Nc1ccc(-c2cc(NC(=O)C3CC3)nc3[nH]ccc23)cc1 [Example 462, N-(4-(4-(3-ethylthioureido)phenyl)-1H-pyrrolo[2,3-b]pyridin-6-yl)cyclopropanecarboxamide]
> 200 nM	CCCCNC(=S)Nc1ccc(-c2cc(NC(=O)C3CC3)nc3[nH]ccc23)cc1 [Example 463, N-(4-(4-(3-butylthioureido)phenyl)-1H-pyrrolo[2,3-b]pyridin-6-yl)cyclopropanecarboxamide]
> 200 nM	O=C(Nc1nc(-c2ccc(NC(=S)NC3CCCCC3)cc2)c2cc[nH]c2n1)C1CC1 [Example 464, N-(4-(4-(3-cyclohexylthioureido)phenyl)-7H-pyrrolo[2,3-d]pyrimidin-2-yl)cyclopropanecarboxamide]
20 to 200 nM	CCCCNC(=S)Nc1ccc(-c2nc(NC(=O)C3CC3)nc3[nH]ccc23)cc1 [Example 465, N-(4-(4-(3-butylthioureido)phenyl)-7H-pyrrolo[2,3-d]pyrimidin-2-yl)cyclopropanecarboxamide]
20 to 200 nM	CCNC(=S)Nc1ccc(-c2nc(NC(=O)C3CC3)nc3[nH]ccc23)cc1 [Example 466, N-(4-(4-(3-ethylthioureido)phenyl)-7H-pyrrolo[2,3-d]pyrimidin-2-yl)cyclopropanecarboxamide]
20 to 200 nM	CCCNC(=S)Nc1ccc(-c2nc(NC(=O)C3CC3)nc3[nH]ccc23)cc1 [Example 467, N-(4-(4-(3-propylthioureido)phenyl)-7H-pyrrolo[2,3-d]pyrimidin-2-yl)cyclopropanecarboxamide]
20 to 200 nM	CCNC(=S)N1CC=C(c2cc(NC(=O)C3CC3)nc3[nH]ccc23)CC1 [Example 468, N-(4-(1-(ethylcarbamothioyl)-1,2,3,6-tetrahydropyridin-4-yl)-1H-pyrrolo[2,3-b]pyridin-6-yl)cyclopropanecarboxamide]
20 to 200 nM	O=C(Nc1cc(-c2ccc(NCC3CC3)cc2)c2cc[nH]c2n1)C1CC1 [Example 470, N-(4-(4-((cyclopropylmethyl)amino)phenyl)-1H-pyrrolo[2,3-b]pyridin-6-yl)cyclopropanecarboxamide]
> 200 nM	O=C(Nc1cc(-c2ccc(NCC3CCCCC3)cc2)c2cc[nH]c2n1)C1CC1 [Example 471, N-(4-(4-((cyclohexylmethyl)amino)phenyl)-1H-pyrrolo[2,3-b]pyridin-6-yl)cyclopropanecarboxamide]
> 200 nM	O=C(Nc1cc(-c2ccc(NCc3ccccc3)cc2)c2cc[nH]c2n1)C1CC1 [Example 472, N-(4-(4-(benzylamino)phenyl)-1H-pyrrolo[2,3-b]pyridin-6-yl)cyclopropanecarboxamide]
< 20 nM	O=C(Nc1nc(-c2ccc(NCc3ccc(F)cc3)cc2)c2cc[nH]c2n1)C1CC1 [Example 473, N-(4-(4-((4-fluorobenzyl)amino)phenyl)-7H-pyrrolo[2,3-d]pyrimidin-2-yl)cyclopropanecarboxamide]
< 20 nM	O=C(Nc1nc(-c2ccc(NCc3cccc(F)c3)cc2)c2cc[nH]c2n1)C1CC1 [Example 474, N-(4-(4-((3-fluorobenzyl)amino)phenyl)-7H-pyrrolo[2,3-d]pyrimidin-2-yl)cyclopropanecarboxamide]
< 20 nM	O=C(Nc1nc(-c2ccc(NCc3ccc(Cl)cc3)cc2)c2cc[nH]c2n1)C1CC1 [Example 475, N-(4-(4-((4-chlorobenzyl)amino)phenyl)-7H-pyrrolo[2,3-d]pyrimidin-2-yl)cyclopropanecarboxamide]
> 200 nM	O=C(Nc1nc(-c2ccc(NCCCO)cc2)c2cc[nH]c2n1)C1CC1 [Example 476, N-(4-(4-((3-hydroxypropyl)amino)phenyl)-7H-pyrrolo[2,3-d]pyrimidin-2-yl)cyclopropanecarboxamide]
< 20 nM	N#CCCn1cc(-c2cc(NC(=O)C3CC3)nc3[nH]ccc23)cn1 [Example 477, N-(4-(1-(2-cyanoethyl)-1H-pyrazol-4-yl)-1H-pyrrolo[2,3-b]pyridin-6-yl)cyclopropanecarboxamide]
< 20 nM	O=C(Nc1cc(-c2cnn(CC3CC3)c2)c2cc[nH]c2n1)C1CC1 [Example 478, N-(4-(1-(cyclopropylmethyl)-1H-pyrazol-4-yl)-1H-pyrrolo[2,3-b]pyridin-6-yl)cyclopropanecarboxamide]
20 to 200 nM	O=C(Nc1cc(-c2cnn(Cc3ccccc3)c2)c2cc[nH]c2n1)C1CC1 [Example 479, N-(4-(1-benzyl-1H-pyrazol-4-yl)-1H-pyrrolo[2,3-b]pyridin-6-yl)cyclopropanecarboxamide]
20 to 200 nM	Cc1nn(CCC#N)c(C)c1-c1cc(NC(=O)C2CC2)nc2[nH]ccc12 [Example 480, N-(4-(1-(2-cyanoethyl)-3,5-dimethyl-1H-pyrazol-4-yl)-1H-pyrrolo[2,3-b]pyridin-6-yl)cyclopropanecarboxamide]
20 to 200 nM	O=C(Nc1cc(-c2cn(Cc3ccccc3)nn2)c2cc[nH]c2n1)C1CC1 [Example 481, N-(4-(1-benzyl-1H-1,2,3-triazol-4-yl)-1H-pyrrolo[2,3-b]pyridin-6-yl)cyclopropanecarboxamide]
> 200 nM	N#Cc1ccc(Cn2cc(-c3nc(NC(=O)C4CC4)nc4[nH]ccc34)cn2)cn1 [Example 482, N-(4-(1-((6-cyanopyridin-3-yl)methyl)-1H-pyrazol-4-yl)-7H-pyrrolo[2,3-d]pyrimidin-2-yl)cyclopropanecarboxamide]
< 20 nM	N#CCCn1ccc(-c2cc(NC(=O)C3CC3)nc3[nH]ccc23)c1 [Example 483, N-(4-(1-(2-cyanoethyl)-1H-pyrrol-3-yl)-1H-pyrrolo[2,3-b]pyridin-6-yl)cyclopropanecarboxamide]
> 200 nM	O=C(Nc1cc(C2=CCN(CCN3CCOCC3)C2)c2cc[nH]c2n1)C1CC1 [Example 484, N-(4-(1-(2-morpholinoethyl)-2,5-dihydro-1H-pyrrol-3-yl)-1H-pyrrolo[2,3-b]pyridin-6-yl)cyclopropanecarboxamide]
20 to 200 nM	N#CCCN1CC=C(c2cc(NC(=O)C3CC3)nc3[nH]ccc23)C1 [Example 485, N-(4-(1-(2-cyanoethyl)-2,5-dihydro-1H-pyrrol-3-yl)-1H-pyrrolo[2,3-b]pyridin-6-yl)cyclopropanecarboxamide]
> 200 nM	O=C(Nc1cc(C2=CCC(NC3CCN(C(=O)c4cc(F)cc(F)c4)CC3)CC2)c2cc[nH]c2n1)C1CC1 (centres unmarked) [Example 491, N-(4-(4-((1-(3,5-difluorobenzoyl)piperidin-4-yl)amino)cyclohex-1-en-1-yl)-1H-pyrrolo[2,3-b]pyridin-6-yl)cyclopropanecarboxamide]

SMILES	IC50
CCNC(=S)N1C2C=C(c3cc(NC(=O)C4CC4)nc4[nH]ccc34)CC1CC2 (centres unmarked) [Example 469, N-(4-(8-(ethylcarbamothioyl)-8-azabicyclo[3.2.1]oct-2-en-3-yl)-1H-pyrrolo[2,3-b]pyridin-6-yl)cyclopropanecarboxamide]	< 20 nM
N#CCCN1CC=C(c2cc(NC(=O)C3CC3)nc3[nH]ccc23)CC1 [Example 486, N-(4-(1-(2-cyanoethyl)-1,2,3,6-tetrahydropyridin-4-yl)-1H-pyrrolo[2,3-b]pyridin-6-yl)cyclopropanecarboxamide]	20 to 200 nM
CC1(CN2CC=C(c3cc(NC(=O)C4CC4)nc4[nH]ccc34)CC2)COC1 [Example 487, N-(4-(1-((3-methyloxetan-3-yl)methyl)-1,2,3,6-tetrahydropyridin-4-yl)-1H-pyrrolo[2,3-b]pyridin-6-yl)cyclopropanecarboxamide]	> 200 nM
O=C(Nc1cc(C2=CCN(Cc3ccns3)CC2)c2cc[nH]c2n1)C1CC1 [Example 488, N-(4-(1-(isothiazol-5-ylmethyl)-1,2,3,6-tetrahydropyridin-4-yl)-1H-pyrrolo[2,3-b]pyridin-6-yl)cyclopropanecarboxamide]	< 20 nM
O=C(Nc1cc(C2=CCN(CC3CC3(F)F)CC2)c2cc[nH]c2n1)C1CC1 (centres unmarked) [Example 489, N-(4-(1-((2,2-difluorocyclopropyl)methyl)-1,2,3,6-tetrahydropyridin-4-yl)-1H-pyrrolo[2,3-b]pyridin-6-yl)cyclopropanecarboxamide]	20 to 200 nM
N#CC1CC(N2CC=C(c3cc(NC(=O)C4CC4)nc4[nH]ccc34)CC2)C1 (centres unmarked) [Example 490, N-(4-(1-(3-cyanocyclobutyl)-1,2,3,6-tetrahydropyridin-4-yl)-1H-pyrrolo[2,3-b]pyridin-6-yl)cyclopropanecarboxamide]	20 to 200 nM
